Results from patent publication US5356796A, “Repressor protein and operon for regulating expression of polypeptides and its use in the preparation of 2,2-dialkyglycine decarboxylase of Pseudomonas cepacia” (priority 1992, dated 1994).

Columns and labels:
[1] = system: dialkylglycine decarboxylase gene expression in E. coli DH5α/pKBD6; experiment: Time course of dialkylglycine decarboxylase induction in E. coli DH5α/pKBD6; format: cell-based, Escherichia coli; conditions: DH5α/pKBD6 in minimal medium with ammonium chloride; amino acid added during growth (10 mM in FIG. 7 legend, 8.0 mM in method)
Method: FIG. 7 depicts induction of dialkylglycine decarboxylase activity in E. coli DH5a/pKBD6 cultures by various amino acids. One-liter cultures containing minimal salts, glucose, NH4 Cl, and tetracycline (12 μg/ml) were supplemented at the indicated time with amino acid (final concentration, 10 mM). Absorbance of the culture was measured at 600 nm in a 1-cm cell ( -- ). Each activity assay contained 60 absorbance units of resuspended bacteria (.largecircle.--.largecircle.)
Radiochemical Dialkylglycine Decarboxylase Assay--Dialkylglycine decarboxylase activity was measured under zero-order conditions essentially as described (Dinwoodie and Boeker, 1979). Assay reactions contained 500 μL of protein solution (100 mM MOPS^1, (MOPS=3-(N-morphalino)propanesulfonic acid), 25 mM KCl, 0.05 mM PLP, (PLP=pyridoxal 5'-phosphate), pH 7.00 or 30 mM Tris, 40 mM KCl, 0.05 mM PLP pH 7.90) plus 0.045 mL of substrate solution (245 mM 2-methylalanine, 62 mM sodium pyruvate, containing 0.25 μCi [1-^14 C]2-methylalanine)- Assays were carried out in stoppered 12×220 mm test tubes containing a folded 10×25 mm piece of filter paper soaked with 24 μL of 2:1 ethanolamine/2-ethoxyethanol- After incubation at room temperature (25° C.) for one or two hours, the reaction was quenched with 200 μL of 50% trichloroacetic acid, ^14 CO2 was collected for one hour, and the filter paper was counted in 10 mL of Beckman Ready Safe cocktail. One unit is defined as the amount of activity required to produce 1 nanomole of CO2 per min. at 25° C.
Time Course of Dialkylglycine Decarboxylase Induction--An 800-mL portion of M9 containing 12 μg/mL tetracycline in a 6-L conical flask was inoculated with DH5α/pKBD6. The flask was shaken at 37° C. and the absorbance at 600 nm was measured periodically. At various times during cell growth aliquots containing 60. AU's (absorbance units) of cells were removed, stored on ice, concentrated by centrifugation, and resuspended in 1.0 mL MOPS buffer. Aliquots of 0.50 mL were assayed for dialkylglycine activity. After the first two samples were taken, an amino acid (2-methylalanine, R,S-isovaline, D-alanine, or L-alanine) was added to a final concentration of 8.0 mM and sampling was continued.

[2] = system: dialkylglycine decarboxylase gene (dgdA) expression controlled by the P. cepacia repressor, in E. coli JM109/pGEM7Z14; format: cell-based, Escherichia coli; conditions: 20 mM amino acid in culture medium
Method: Induction Stereochemistry--The induction phenomenon was further investigated by surveying the inducing ability of the separate isovaline stereoisomers and 15 other structurally similar amino acids (Table 3).
In some experiments 20 mM 2-methylalanine or other amino acid or 1 mg/mL IPTG was added to the growth medium. […] Protein concentrations were determined by dye binding (Read and Northcote, 1981).

[3] = biological target: T1, Pseudomonas cepacia 2,2-dialkylglycine decarboxylase repressor (dgdR gene product, SEQ ID NO: 11) bound to operators O1 and O2 (Burkholderia cepacia, UniProt P16931); experiment: Gel mobility shift assay of dgdR repressor with the 788 bp DNA fragment in presence of 2-methylalanine; format: binding; conditions: 20 mM 2-methylalanine in gel; 788 bp fragment containing O1 and O2
T1 construct: crude extract or ammonium sulfate fraction; gel shift on dgd operator DNA
T1 sequence (P16931 whole entry, the tested form may be a part): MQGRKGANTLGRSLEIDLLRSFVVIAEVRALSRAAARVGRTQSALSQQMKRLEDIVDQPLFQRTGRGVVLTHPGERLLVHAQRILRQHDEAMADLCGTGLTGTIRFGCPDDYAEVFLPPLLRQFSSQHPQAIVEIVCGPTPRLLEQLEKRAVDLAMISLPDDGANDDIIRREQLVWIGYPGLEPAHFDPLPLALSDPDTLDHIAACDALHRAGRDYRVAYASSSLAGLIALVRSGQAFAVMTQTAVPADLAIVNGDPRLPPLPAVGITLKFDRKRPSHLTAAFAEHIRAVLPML
Method: Repressor Preparation--A 100 ml portion of LB medium containing about 50 μg/ml carbenicillin was inoculated with about a 2 ml overnight culture of JM109/pJKDGDR1 and was grown at about 37° C. to an OD600 of 1. IPTG was added to a final concentration of about 1 mM, the culture was shaken another 4 h, and then was pelleted by centrifugation at 4000 xg at about 4° C. The pellet was resuspended in 5 ml buffer (50 mM TrisHCl pH 7.9, 50 mM KCl), sonicated 3×0.5 min at about 0° C., and centrifuged for about 15 min at about 12,000 xg at about 4° C. Aliquots of the supernatant were used for gel shift assays and SDS-PAGE. Other aliquots were partially purified by selective precipitation with 1.0 M ammonium sulfate. Protein concentration was determined by the dye binding method of Read and Northcote (1981). […]
Gel Shift Assays--A 10 μl assay mixture contained about 50 ng of DNA fragment, 1.0 μg of repressor extract (or 1.0 μg of extract from a JM109 strain containing a dgdA-pBTac1 recombinant), 10 mM TrisHCl pH 7.6, 5 mM sodium acetate, 2.5% glycerol, and 0.005% bovine serum albumin. The mixture was incubated 5 to 20 min at room temperature, about 3 μl of 50% sucrose/0.1% bromophenol blue was added, and the entire sample was analyzed by electrophoresis in a 1 mm 4% polyacrylamide gel containing about […] Tris, 380 mM glycine, 4 mM EDTA, and 2.5% glycerol. […]

[4] = biological target: Pseudomonas cepacia 2,2-dialkylglycine decarboxylase (Burkholderia cepacia, UniProt P16932); conditions: isovaline isomer as substrate of the decarboxylase; read-out: Michaelis constant; cited from earlier work
Chain of Pseudomonas cepacia 2,2-dialkylglycine decarboxylase (P16932 2-433): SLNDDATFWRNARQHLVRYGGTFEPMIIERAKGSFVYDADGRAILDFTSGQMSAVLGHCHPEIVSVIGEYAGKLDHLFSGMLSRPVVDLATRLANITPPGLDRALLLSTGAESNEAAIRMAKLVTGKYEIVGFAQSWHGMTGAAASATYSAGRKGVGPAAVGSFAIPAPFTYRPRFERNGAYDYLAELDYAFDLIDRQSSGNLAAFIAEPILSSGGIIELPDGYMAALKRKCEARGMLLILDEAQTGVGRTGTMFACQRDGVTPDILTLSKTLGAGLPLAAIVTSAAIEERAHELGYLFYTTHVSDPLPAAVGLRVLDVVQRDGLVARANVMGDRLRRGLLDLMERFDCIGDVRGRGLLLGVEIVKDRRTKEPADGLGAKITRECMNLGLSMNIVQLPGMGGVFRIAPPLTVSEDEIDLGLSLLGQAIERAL

Row | SMILES | induction of decarboxylase specific activity after amino acid addition (in words) [1] | also measured
1 | CCC(C)(N)C(=O)O (racemic) [racemic isovaline, isovaline (2-ethylalanine)] | immediate and rapid increase in decarboxylase specific activity | 
2 | NC1(C(=O)O)CCCC1 [1-Aminocyclopentane carboxylic acid] |  | induction of decarboxylase (in words) [2]: induced an intermediate level
3 | CC(C)(N)C(=O)O [2-Methylalanine] | immediate and rapid increase in decarboxylase specific activity | effect on repressor binding to operators (gel shift, in words) [3]: releases O1, but not O2, binding
4 | C[C@@H](N)C(=O)O [D-Alanine] | no decarboxylase production | 
5 | C[C@H](N)C(=O)O [L-Alanine] | no decarboxylase production | 
6 | CC[C@@](C)(N)C(=O)O [R-Isovaline] |  | Km [4]: 1 mM
7 | CC[C@](C)(N)C(=O)O [S-Isovaline] |  | Km [4]: 25 mM
